Like-named read-outs stand apart in the source and are kept apart here.
Tests used:
JAK1 = JAK1 (Homo sapiens (Human), UniProt P23458); assay: Jak Biochemical HTRF Assay (JAK1); details: recombinant GST-tagged catalytic domain, [ATP] 31.8 μM, unit not given (compound concentrations tested given in nM)
Source text: Jak Biochemical HTRF Assay Protocol
Subsequent reagent additions employed an Agilent Bravo.

JAK2 = JAK2 (Homo sapiens (Human), UniProt O60674); assay: Jak Biochemical HTRF Assay (JAK2)
Chain of JAK2 (O60674 849-1124): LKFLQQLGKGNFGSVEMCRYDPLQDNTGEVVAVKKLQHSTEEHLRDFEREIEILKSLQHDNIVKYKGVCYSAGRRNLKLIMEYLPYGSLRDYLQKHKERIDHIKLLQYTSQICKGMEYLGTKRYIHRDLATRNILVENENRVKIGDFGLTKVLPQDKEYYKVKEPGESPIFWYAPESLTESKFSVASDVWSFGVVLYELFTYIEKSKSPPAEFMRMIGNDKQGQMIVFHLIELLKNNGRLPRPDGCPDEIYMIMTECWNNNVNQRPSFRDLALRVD

[1] = JAK2 IC50, recombinant GST-tagged catalytic domain, [ATP] 8.5 μM, unit not given (compound concentrations tested given in nM)
[2] = read-out: JAK2 IC50, recombinant GST-tagged catalytic domain, [ATP] 8.5 μM, unit not given (compound concentrations tested given in nM)

Chain of JAK1 (P23458 875-1153): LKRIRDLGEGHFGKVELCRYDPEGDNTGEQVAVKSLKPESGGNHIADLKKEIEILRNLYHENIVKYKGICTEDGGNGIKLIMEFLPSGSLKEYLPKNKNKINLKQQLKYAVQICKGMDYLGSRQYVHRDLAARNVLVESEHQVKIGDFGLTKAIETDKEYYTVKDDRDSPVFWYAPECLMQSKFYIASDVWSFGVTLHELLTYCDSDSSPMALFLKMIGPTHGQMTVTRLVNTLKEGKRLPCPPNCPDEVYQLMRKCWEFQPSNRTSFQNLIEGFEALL

IC50 (JAK1)	IC50 (JAK2; [1])	IC50 (JAK2; [2])	Compound
0.15 nM	0.3 nM		CC1CCCN1C(c1ccc(Nc2nn([C@H]3COCC[C@@H]3C#N)c3cc[nH]c(=O)c23)cc1)C(F)(F)F (single isomer, unassigned) [Example 1-87, (3R,4S)-3-{4-oxo-3-[(4-{(1S or 1R)-2,2,2-trifluoro-1-[(2R or 2S)-2-methylpyrrolidin-1-yl]ethyl}phenyl)amino]-4,5-dihydro-1H-pyrazolo[4,3-c]pyridin-1-yl}tetrahydro-2H-pyran-4-carbonitrile]
17.3 nM	21.2 nM		CC(C)(C)S(=O)(=O)c1ccc(Nc2nn([C@H]3COCCC[C@@H]3C#N)c3cc[nH]c(=O)c23)cc1 (single isomer, unassigned) [Example 1-22, (3R,4S or 3S,4R)-3-(3-{[4-(tert-butylsulfonyl)phenyl]amino}-4-oxo-4,5-dihydro-1H-pyrazolo[4,3-c]pyridin-1-yl)oxepane-4-carbonitrile]
0.07 nM		0.21 nM	CN(C)S(=O)(=O)c1ccc(Nc2nn([C@H]3COCC[C@@H]3C#N)c3cc[nH]c(=O)c23)cc1 [Example 1-6, 4-((1-((3R,4S)-4-cyanotetrahydro-2H-pyran-3-yl)-4-oxo-4,5-dihydro-1H-pyrazolo[4,3-c]pyridin-3-yl)amino)-N,N-dimethyl-benzenesulfonamide]
0.14 nM	0.54 nM		CC1CN(S(=O)(=O)c2ccc(Nc3nn([C@H]4COCC[C@@H]4C#N)c4cc[nH]c(=O)c34)cc2)CCO1 (single isomer, unassigned) [Example 1-75, (3R,4S)-3-{3-[(4-{[(2R or 2S)-2-methylmorpholin-4-yl]sulfonyl}phenyl)amino]-4-oxo-4,5-dihydro-1H-pyrazolo[4,3-c]pyridin-1-yl}tetrahydro-2H-pyran-4-carbonitrile]
0.09 nM	0.29 nM		N#C[C@H]1CCOC[C@@H]1n1nc(Nc2ccc(C(N)C(F)(F)F)cc2)c2c(=O)[nH]ccc21 (single isomer, unassigned) [Example 1-9, (3R,4S)-3-(3-((4-((S or R)-1-amino-2,2,2-trifluoroethyl)phenyl)amino)-4-oxo-4,5-dihydro-1H-pyrazolo[4,3-c]pyridin-1-yl)tetrahydro-2H-pyran-4-carbonitrile]
0.05 nM	0.13 nM		N#C[C@H]1CCOC[C@@H]1n1nc(Nc2ccc(C(N3CCCC3)C(F)(F)F)cc2)c2c(=O)[nH]ccc21 (single isomer, unassigned) [Example 1-42, (3R,4S)-3-[4-oxo-3-({4-[(1R or 1S)-2,2,2-trifluoro-1-pyrrolidin-1-ylethyl]phenyl}amino)-4,5-dihydro-1H-pyrazolo[4,3-c]pyridin-1-yl]tetrahydro-2H-pyran-4-carbonitrile]
0.14 nM	0.15 nM		N#C[C@H]1CCOC[C@@H]1n1nc(Nc2ccc(C(N3CCSCC3)C(F)(F)F)cc2)c2c(=O)[nH]ccc21 (single isomer, unassigned) [Example 2-5, (3R,4S)-3-[4-oxo-3-({4-[(1S or 1R)-2,2,2-trifluoro-1-thiomorpholin-4-ylethyl]phenyl}amino)-4,5-dihydro-1H-pyrazolo[4,3-c]pyridin-1-yl]tetrahydro-2H-pyran-4-carbonitrile]
0.11 nM	0.09 nM		CC1CCCN1C(c1ccc(Nc2nn([C@H]3COCC[C@@H]3C#N)c3cc[nH]c(=O)c23)cc1)C(F)(F)F (single isomer, unassigned) [Example 1-88, (3R,4S)-3-{4-oxo-3-[(4-{(1S or 1R)-2,2,2-trifluoro-1-[(2S or 2R)-2-methylpyrrolidin-1-yl]ethyl}phenyl)amino]-4,5-dihydro-1H-pyrazolo[4,3-c]pyridin-1-yl}tetrahydro-2H-pyran-4-carbonitrile]
1.75 nM	14.6 nM		C[S+]([O-])c1cc(Nc2nn([C@H]3COCC[C@@H]3C#N)c3cc[nH]c(=O)c23)ccc1Cl (mixture of isomers) [Example 3-4, (3R,4S)-3-(3-{[4-chloro-3-((S and R)methylsulfinyl)phenyl]amino}-4-oxo-4,5-dihydro-1H-pyrazolo[4,3-c]pyridin-1-yl)tetrahydro-2H-pyran-4-carbonitrile]
0.06 nM	0.05 nM		CC(C)NC1(C)C(=O)Nc2cc(Nc3nn(C4COCC[C@@H]4C#N)c4cc[nH]c(=O)c34)ccc21 (single isomer, unassigned) [Example 1-100, (3R,4S)-3-[3-({(3R or 3S)-3-methyl-3-[(1-methylethyl)amino]-2-oxo-2,3-dihydro-1H-indol-6-yl}amino)-4-oxo-4,5-dihydro-1H-pyrazolo[4,3-c]pyridin-1-yl] tetrahydro-2H-pyran-4-carbonitrile]
0.09 nM		2.52 nM	COc1cc(Nc2nn([C@H]3COCC[C@@H]3C#N)c3cc[nH]c(=O)c23)ccc1F [Example 1-17, (3R,4S)-3-{3-[(4-fluoro-3-methoxyphenyl)amino]-4-oxo-4,5-dihydro-1H-pyrazolo[4,3-c]pyridin-1-yl}tetrahydro-2H-pyran-4-carbonitrile]
0.05 nM	0.08 nM		CN(C)C(c1ccc(Nc2nn([C@H]3COCC[C@@H]3C#N)c3cc[nH]c(=O)c23)cc1)C(F)(F)F (single isomer, unassigned) [Example 1-19, (3R,4S)-3-[3-({4-[(1S or 1R)-1-(dimethylamino)-2,2,2-trifluoroethyl]phenyl}amino)-4-oxo-4,5-dihydro-1H-pyrazolo[4,3-c]pyridin-1-yl]tetrahydro-2H-pyran-4-carbonitrile]
0.12 nM	0.24 nM		CC1CCN1S(=O)(=O)c1ccc(Nc2nn([C@H]3COCC[C@@H]3C#N)c3cc[nH]c(=O)c23)cc1 (single isomer, unassigned) [Example 1-78, (3R,4S)-3-{3-[(4-{[(2S or 2R)-2-methylazetidin-1-yl]sulfonyl}phenyl)amino]-4-oxo-4,5-dihydro-1H-pyrazolo[4,3-c]pyridin-1-yl}tetrahydro-2H-pyran-4-carbonitrile]
0.07 nM	0.14 nM		CCNC(c1ccc(Nc2nn([C@H]3COCC[C@@H]3C#N)c3cc[nH]c(=O)c23)cc1)C(F)(F)F (single isomer, unassigned) [Example 1-54, (3R,4S)-3-[3-({4-[(1R or 1S)-1-(ethylamino)-2,2,2-trifluoroethyl]phenyl}amino)-4-oxo-4,5-dihydro-1H-pyrazolo[4,3-c]pyridin-1-yl]tetrahydro-2H-pyran-4-carbonitrile]
0.08 nM	0.12 nM		CCNC(c1ccc(Nc2nn([C@H]3COCC[C@@H]3C#N)c3cc[nH]c(=O)c23)cc1)C(F)(F)F (single isomer, unassigned) [Example 1-55, (3R,4S)-3-[3-({4-[(1S or 1R)-1-(ethylamino)-2,2,2-trifluoroethyl]phenyl}amino)-4-oxo-4,5-dihydro-1H-pyrazolo[4,3-c]pyridin-1-yl] tetrahydro-2H-pyran-4-carbonitrile]
0.13 nM	0.17 nM		N#C[C@H]1CCOC[C@@H]1n1nc(Nc2ccc(C(N3CCNCC3)C(F)(F)F)cc2)c2c(=O)[nH]ccc21 (single isomer, unassigned) [Example 1-39, (3R,4S)-3-[4-oxo-3-({4-[(1S or 1R)-2,2,2-trifluoro-1-piperazin-1-ylethyl]phenyl}amino)-4,5-dihydro-1H-pyrazolo[4,5-c]pyridin-1-yl]tetrahydro-2H-pyran-4-carbonitrile]
0.06 nM	0.09 nM		N#C[C@H]1CCOCC1n1nc(Nc2ccc(C(O)(c3ccncc3)C(F)(F)F)cc2)c2c(=O)[nH]ccc21 (single isomer, unassigned) [Example 1-95, (3R,4S)-3-(4-oxo-3-((4-((S or R)-2,2,2-trifluoro-1-hydroxy-1-(pyridin-4-yl)ethyl)phenyl)amino)-4,5-dihydro-1H-pyrazolo[4,3-c]pyridin-1-yl)tetrahydro-2H-pyran-4-carbonitrile]
0.06 nM	0.39 nM		CC(O)(c1ccc(Nc2nn([C@H]3COCC[C@@H]3C#N)c3cc[nH]c(=O)c23)cc1)C(F)(F)F (single isomer, unassigned) [Example 2-3, (3R,4S)-3-[4-oxo-3-({4-[(1R or 1S)-2,2,2-trifluoro-1-hydroxy-1-methylethyl]phenyl}amino)-4,5-dihydro-1H-pyrazolo[4,3-c]pyridin-1-yl]tetrahydro-2H-pyran-4-carbonitrile]
0.05 nM	0.05 nM		N#C[C@H]1CCOC[C@@H]1n1nc(Nc2ccc(C3(C(F)(F)F)CCCCN3)cc2)c2c(=O)[nH]ccc21 (single isomer, unassigned) [Example 2-8, (3R,4S)-3-[4-oxo-3-({4-[(2R or 2S)-2-(trifluoromethyl)piperidin-2-yl]phenyl}amino)-4,5-dihydro-1H-pyrazolo[4,3-c]pyridin-1-yl] tetrahydro-2H-pyran-4-carbonitrile]
0.08 nM		0.3 nM	N#C[C@H]1CCOC[C@@H]1n1nc(Nc2ccc(S(=O)(=O)N3CCC3)cc2)c2c(=O)[nH]ccc21 [Example 1-69, (3R,4S)-3-(3-{[4-(azetidin-1-ylsulfonyl)phenyl]amino}-4-oxo-4,5-dihydro-1H-pyrazolo[4,3-c]pyridin-1-yl)tetrahydro-2H-pyran-4-carbonitrile]
0.05 nM	0.17 nM		CC1CCN1S(=O)(=O)c1ccc(Nc2nn([C@H]3COCC[C@@H]3C#N)c3cc[nH]c(=O)c23)cc1 (single isomer, unassigned) [Example 1-77, (3R,4S)-3-{3-[(4-{[(2R or 2S)-2-methylazetidin-1-yl]sulfonyl}phenyl)amino]-4-oxo-4,5-dihydro-1H-pyrazolo[4,3-c]pyridin-1-yl}tetrahydro-2H-pyran-4-carbonitrile]

From patent publication US9957265B2, “N-(2-cyano heterocyclyl) pyrazolo pyridones as janus kinase inhibitors” (Merck Sharp & Dohme Corp., priority 2013, dated 2018)
